According to paper PMC10599993, “The PTPN2/PTPN1 inhibitor ABBV-CLS-484 unleashes potent anti-tumour immunity” (Nature, 2023):

Tests used:
Experiment in all cases: biochemical
Parameters in all cases: Safety pharmacology off-target panel at Eurofins, radioligand binding with agonist or antagonist radioligand (Supplementary Table 2)
M3 = biological target: T1, M3 (Homo sapiens, UniProt P20309); conditions: antagonist radioligand
T1 construct: gene CHRM3
Method: (§1) Wide-range phosphatase, kinase and preclinical safety pharmacology off-target activity screens were conducted at Eurofins (Extended Data Table 5 and Supplementary Tables 1 and 2). A small phosphatase panel was developed at AbbVie to assess IC50 values on select phosphatases. The following enzymes used in the phosphatase selectivity panel were purchased from Eurofins: PTPN1 (PTP1B; 14–621), PTPN2 (TC-PTP; 14–646), PTPN9 (14–592), SHP1 (14–591) and SHP2 (14–622). The catalytic activity of the phosphatase was monitored using the small-molecule substrate DiFMUP (ThermoFisher) in a fluorescence assay format. In brief, the phosphatase reactions were performed at room temperature in the following assay buffer: 50 mM HEPES, pH 7.2, 100 mM NaCl, 1 mM EDTA, 0.005% Tween-20 and 5 mM TCEP. Each phosphatase was incubated with increasing concentrations of AC484 for 5 min, after which the substrate DiFMUP was added and incubated at 25 °C for 30 min. The final concentration of the enzyme and substrate was maintained at 0.5 nM and 5 μM, respectively, in all the assays. The reaction was then quenched by the addition of a 100 μM solution of bpV(Phen) (Enzo Life Sciences). The fluorescence signal was monitored using an Envision microplate reader (Perkin-Elmer) using excitation and emission wavelengths of 340 nm and 450 nm, respectively. The dose–response curves for the inhibitors were analysed using normalized IC50 regression curve fitting with control-based normalization. Supplementary file 41586_2023_6575_MOESM4_ESM.xlsx: Supplementary Table 2 AC484 receptor selectivity screen.

H2 = biological target: T2, H2 (Homo sapiens, UniProt P25021); conditions: antagonist radioligand
T2 construct: gene HRH2
Method: as §1

Y1 = biological target: T3, Y1 (Homo sapiens, UniProt P25929); conditions: agonist radioligand
T3 construct: gene NPY1R
Method: as §1

NK1 = biological target: T4, NK1 (Homo sapiens, UniProt P25103); conditions: agonist radioligand
T4 construct: gene TACR1
Method: as §1

Dopamine transporter = biological target: T5, Dopamine transporter (Homo sapiens, UniProt Q01959); conditions: antagonist radioligand
T5 construct: gene SLC6A3
Method: as §1

Motilin = biological target: T6, Motilin (Homo sapiens, UniProt O43193); conditions: agonist radioligand
T6 construct: gene MLNR
Method: as §1

5-HT3 = biological target: T7, 5-HT3 (Homo sapiens, UniProt P46098); conditions: antagonist radioligand
T7 construct: gene HTR3A
Method: as §1

b1 (h) = biological target: T8, b1 (h) (Homo sapiens, UniProt P08588); conditions: agonist radioligand
T8 construct: gene ADRB1
Method: as §1

d (DOP) = biological target: T9, d (DOP) (Homo sapiens, UniProt P41143); conditions: agonist radioligand
T9 construct: gene OPRD1; DOP
Method: as §1

5-HT2C = biological target: T10, 5-HT2C (Homo sapiens, UniProt P28335); conditions: antagonist radioligand
T10 construct: gene HTR2C
Method: as §1

VPAC1 (VIP1) = biological target: T11, VPAC1 (VIP1) (Homo sapiens, UniProt P32241); conditions: agonist radioligand
T11 construct: gene VIPR1
Method: as §1

m (MOP) = biological target: T12, m (MOP) (Homo sapiens, UniProt P35372); conditions: agonist radioligand
T12 construct: gene OPRM1; MOP
Method: as §1

M5 = biological target: T13, M5 (Homo sapiens, UniProt P08912); conditions: antagonist radioligand
T13 construct: gene CHRM5
Method: as §1

[1] = biological target: T14, Norepinephrine transporter (Homo sapiens, UniProt P23975); conditions: antagonist radioligand
T14 construct: gene SLC6A2
Method: as §1

ETB = biological target: T15, ETB (Homo sapiens, UniProt P24530); conditions: agonist radioligand
T15 construct: gene EDNRB
Method: as §1

GABAA1 (a1.b2.g2) = biological target: T16, GABAA1 (a1.b2.g2) (Homo sapiens, UniProt P14867+P18507+P47870); conditions: agonist radioligand
T16 construct: gene GABRA1; a1.b2.g2
Method: as §1

5-HT transporter = biological target: T17, 5-HT transporter (Homo sapiens, UniProt P31645); conditions: antagonist radioligand
T17 construct: gene SLC6A4
Method: as §1

A2A (h) = biological target: T18, A2A (h) (Homo sapiens, UniProt P29274); conditions: agonist radioligand
T18 construct: gene ADORA2A
Method: as §1

5-HT4e = biological target: T19, 5-HT4e (Homo sapiens, UniProt Q13639); conditions: antagonist radioligand
T19 construct: gene HTR4; 5-HT4e isoform
Method: as §1

Measured: AC50

T13 sequence (P08912 whole entry): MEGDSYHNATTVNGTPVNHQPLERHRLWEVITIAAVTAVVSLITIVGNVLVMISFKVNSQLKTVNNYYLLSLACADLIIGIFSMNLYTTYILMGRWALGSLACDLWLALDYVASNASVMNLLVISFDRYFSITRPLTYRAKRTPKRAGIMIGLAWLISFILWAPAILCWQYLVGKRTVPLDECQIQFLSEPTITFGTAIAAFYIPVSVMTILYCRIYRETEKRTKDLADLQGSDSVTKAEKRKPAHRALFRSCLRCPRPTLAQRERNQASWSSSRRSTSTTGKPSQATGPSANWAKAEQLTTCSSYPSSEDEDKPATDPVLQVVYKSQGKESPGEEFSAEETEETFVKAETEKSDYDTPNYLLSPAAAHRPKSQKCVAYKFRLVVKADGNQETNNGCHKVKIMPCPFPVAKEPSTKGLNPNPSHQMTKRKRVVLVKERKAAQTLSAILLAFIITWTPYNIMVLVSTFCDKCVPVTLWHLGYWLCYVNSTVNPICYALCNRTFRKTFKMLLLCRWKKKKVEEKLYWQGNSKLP
T8 sequence (P08588 whole entry): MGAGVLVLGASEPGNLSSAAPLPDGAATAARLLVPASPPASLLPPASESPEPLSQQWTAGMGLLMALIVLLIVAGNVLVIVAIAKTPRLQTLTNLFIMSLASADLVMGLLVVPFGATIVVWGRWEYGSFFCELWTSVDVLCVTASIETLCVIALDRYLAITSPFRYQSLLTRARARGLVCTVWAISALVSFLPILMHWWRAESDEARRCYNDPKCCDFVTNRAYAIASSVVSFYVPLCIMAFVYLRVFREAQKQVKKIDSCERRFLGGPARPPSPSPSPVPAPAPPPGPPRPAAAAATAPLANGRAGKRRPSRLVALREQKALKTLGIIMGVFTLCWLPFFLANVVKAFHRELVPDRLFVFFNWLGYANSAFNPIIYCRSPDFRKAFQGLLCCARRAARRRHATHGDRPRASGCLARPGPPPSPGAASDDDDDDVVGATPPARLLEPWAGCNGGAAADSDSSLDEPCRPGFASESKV
T1 sequence (P20309 whole entry): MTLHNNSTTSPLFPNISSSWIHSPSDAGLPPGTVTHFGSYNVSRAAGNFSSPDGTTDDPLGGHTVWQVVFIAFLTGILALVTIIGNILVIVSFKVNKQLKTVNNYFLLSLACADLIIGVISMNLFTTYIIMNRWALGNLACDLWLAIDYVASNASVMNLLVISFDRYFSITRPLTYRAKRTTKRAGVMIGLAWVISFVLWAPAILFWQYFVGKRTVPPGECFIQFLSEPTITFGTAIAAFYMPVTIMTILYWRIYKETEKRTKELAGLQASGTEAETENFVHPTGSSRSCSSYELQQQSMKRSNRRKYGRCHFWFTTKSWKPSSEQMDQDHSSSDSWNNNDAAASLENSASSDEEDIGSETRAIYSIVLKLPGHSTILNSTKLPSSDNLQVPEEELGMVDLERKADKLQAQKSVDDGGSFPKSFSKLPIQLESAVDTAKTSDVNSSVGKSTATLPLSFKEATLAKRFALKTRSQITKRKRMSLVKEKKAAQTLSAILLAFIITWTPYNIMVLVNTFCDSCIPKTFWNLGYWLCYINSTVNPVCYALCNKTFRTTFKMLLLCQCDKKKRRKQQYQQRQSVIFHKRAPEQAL
T19 sequence (Q13639 whole entry, canonical isoform): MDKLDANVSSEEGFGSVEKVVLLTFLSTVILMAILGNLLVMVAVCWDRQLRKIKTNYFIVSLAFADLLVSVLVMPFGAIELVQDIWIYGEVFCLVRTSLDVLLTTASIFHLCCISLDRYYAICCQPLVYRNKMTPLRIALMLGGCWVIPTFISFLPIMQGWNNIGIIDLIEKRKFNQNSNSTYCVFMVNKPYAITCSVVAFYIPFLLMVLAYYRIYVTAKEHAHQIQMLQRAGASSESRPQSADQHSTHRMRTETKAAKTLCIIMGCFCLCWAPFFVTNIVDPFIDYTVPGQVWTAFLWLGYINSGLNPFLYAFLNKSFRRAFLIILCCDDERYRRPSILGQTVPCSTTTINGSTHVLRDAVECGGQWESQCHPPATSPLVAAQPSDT
T18 sequence (P29274 whole entry): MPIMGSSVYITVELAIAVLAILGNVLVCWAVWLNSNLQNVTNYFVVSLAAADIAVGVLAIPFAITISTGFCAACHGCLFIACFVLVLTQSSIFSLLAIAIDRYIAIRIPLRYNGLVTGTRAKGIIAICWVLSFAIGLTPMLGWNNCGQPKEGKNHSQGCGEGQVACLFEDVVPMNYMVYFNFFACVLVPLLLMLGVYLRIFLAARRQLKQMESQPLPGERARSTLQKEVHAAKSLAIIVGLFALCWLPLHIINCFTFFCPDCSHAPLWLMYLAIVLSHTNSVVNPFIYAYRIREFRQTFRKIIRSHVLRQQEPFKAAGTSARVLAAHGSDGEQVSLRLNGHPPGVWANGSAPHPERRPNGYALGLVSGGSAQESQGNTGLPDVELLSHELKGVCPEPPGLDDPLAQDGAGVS
T15 sequence (P24530 whole entry): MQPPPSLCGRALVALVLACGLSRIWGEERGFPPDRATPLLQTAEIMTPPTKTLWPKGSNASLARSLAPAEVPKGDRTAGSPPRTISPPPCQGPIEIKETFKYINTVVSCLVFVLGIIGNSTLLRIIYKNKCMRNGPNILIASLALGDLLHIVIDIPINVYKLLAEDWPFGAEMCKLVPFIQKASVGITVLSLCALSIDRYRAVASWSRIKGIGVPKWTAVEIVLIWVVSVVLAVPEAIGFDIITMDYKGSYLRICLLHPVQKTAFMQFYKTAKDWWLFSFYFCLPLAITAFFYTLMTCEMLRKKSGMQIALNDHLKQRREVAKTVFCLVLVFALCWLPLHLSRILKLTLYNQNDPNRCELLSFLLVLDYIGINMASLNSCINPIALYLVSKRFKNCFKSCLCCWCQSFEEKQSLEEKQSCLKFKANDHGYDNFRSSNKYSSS
T5 sequence (Q01959 whole entry): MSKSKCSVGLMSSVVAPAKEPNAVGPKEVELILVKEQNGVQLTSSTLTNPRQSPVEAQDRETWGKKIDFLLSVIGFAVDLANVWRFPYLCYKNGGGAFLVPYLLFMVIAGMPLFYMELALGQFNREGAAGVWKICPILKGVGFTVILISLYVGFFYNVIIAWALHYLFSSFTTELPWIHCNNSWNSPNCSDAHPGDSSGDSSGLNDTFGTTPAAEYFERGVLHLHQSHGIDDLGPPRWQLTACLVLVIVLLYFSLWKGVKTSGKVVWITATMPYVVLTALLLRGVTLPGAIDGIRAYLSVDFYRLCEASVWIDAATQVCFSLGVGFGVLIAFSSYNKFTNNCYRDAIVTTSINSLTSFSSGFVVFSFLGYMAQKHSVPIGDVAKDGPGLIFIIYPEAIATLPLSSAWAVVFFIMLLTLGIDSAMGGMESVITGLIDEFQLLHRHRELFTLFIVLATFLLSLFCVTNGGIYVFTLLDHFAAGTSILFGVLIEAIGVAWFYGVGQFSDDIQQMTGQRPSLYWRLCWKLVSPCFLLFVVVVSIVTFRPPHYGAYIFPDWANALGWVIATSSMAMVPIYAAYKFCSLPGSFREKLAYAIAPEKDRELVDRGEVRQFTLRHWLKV
T2 sequence (P25021 whole entry): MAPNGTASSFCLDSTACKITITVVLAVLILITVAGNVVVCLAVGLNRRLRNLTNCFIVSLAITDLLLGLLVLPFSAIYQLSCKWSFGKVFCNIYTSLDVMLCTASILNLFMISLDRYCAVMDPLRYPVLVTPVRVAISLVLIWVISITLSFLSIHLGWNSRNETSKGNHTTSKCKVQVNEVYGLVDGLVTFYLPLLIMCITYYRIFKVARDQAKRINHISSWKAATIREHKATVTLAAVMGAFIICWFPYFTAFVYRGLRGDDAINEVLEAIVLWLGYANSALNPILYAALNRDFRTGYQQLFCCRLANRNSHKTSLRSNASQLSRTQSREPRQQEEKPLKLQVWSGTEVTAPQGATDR
T4 sequence (P25103 whole entry): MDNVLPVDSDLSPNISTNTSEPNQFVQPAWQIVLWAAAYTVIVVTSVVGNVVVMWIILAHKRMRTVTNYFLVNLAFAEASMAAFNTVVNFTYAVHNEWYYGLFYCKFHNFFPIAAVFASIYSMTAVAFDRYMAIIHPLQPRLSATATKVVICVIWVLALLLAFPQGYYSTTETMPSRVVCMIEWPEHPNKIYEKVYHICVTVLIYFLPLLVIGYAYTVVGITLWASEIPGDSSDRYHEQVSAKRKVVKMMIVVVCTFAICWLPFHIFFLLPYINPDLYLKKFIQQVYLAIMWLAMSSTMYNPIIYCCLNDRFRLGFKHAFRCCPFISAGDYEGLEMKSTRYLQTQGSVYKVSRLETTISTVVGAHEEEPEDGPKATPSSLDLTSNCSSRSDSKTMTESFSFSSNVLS
T6 sequence (O43193 whole entry): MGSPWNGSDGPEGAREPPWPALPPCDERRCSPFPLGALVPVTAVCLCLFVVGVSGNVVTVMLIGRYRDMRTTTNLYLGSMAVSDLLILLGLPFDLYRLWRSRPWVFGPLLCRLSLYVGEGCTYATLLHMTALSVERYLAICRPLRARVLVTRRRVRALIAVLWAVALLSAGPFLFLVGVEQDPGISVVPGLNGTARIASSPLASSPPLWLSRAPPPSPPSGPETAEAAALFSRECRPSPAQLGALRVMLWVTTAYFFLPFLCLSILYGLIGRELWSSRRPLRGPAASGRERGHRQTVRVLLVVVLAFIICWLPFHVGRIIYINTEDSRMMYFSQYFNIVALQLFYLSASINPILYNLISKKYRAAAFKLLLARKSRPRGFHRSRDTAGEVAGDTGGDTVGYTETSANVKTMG

CC(C)CCN[C@@H]1CCc2cc(O)c(N3CC(=O)NS3(=O)=O)c(F)c2C1 [AC484, ABBV-CLS-484]
> 0.01 mM: all assays above
